Source: US10765114B2, “4-amino-6-(pyridyl and 2-substitutedphenyl)-picolinates and 6-amino-2-(pyridyl and 2-substitutedphenyl)-pyrimidine-4-carboxylates and their use as herbicides” (Dow AgroSciences LLC, priority 2013, dated 2020)
Read-outs that look alike come from different tables or passages of the source.

Legend:
[1] = tested on: Key Broadleaf Weed and Crop Species; assay: Post-Emergent Test II (Table 5); format: in vivo; conditions: post-emergence, 336 h; for pest or weed control at 70 g/ha: application rate 70 (kg ai/ha; footnote: g ai/ha); for pest or weed control at 140 g/ha: application rate 140 (kg ai/ha; footnote: g ai/ha)
Procedure, shortened: (§1)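 Post-emergence greenhouse spray, 1st-2nd true leaf stage; track sprayer, 187 L/ha; acetone/DMSO stock diluted in aqueous acetone/IPA/DMSO with Atplus 411F and Triton X-155; rates 1× to 1/16×; subirrigated; visual injury 0 (none) to 100% (complete kill) at 14 days.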

[2] = tested on: Key Grass and Sedge Weeds as well as Grass Crops; assay: Post-Emergent Test II (Table 6); format: in vivo; conditions: post-emergence, 336 h, 14 days after application; for pest or weed control at 70 g/ha: 70 g ai/ha; for pest or weed control at 140 g/ha: 140 g ai/ha
Procedure, shortened: as §1

[3] = Abutilon theophrasti, ABUTH: velvetleaf (Abutilon theophrasti), read-out: Visual Growth Reduction (%) 14 Days After Application ABUTH
[4] = Amaranthus retroflexus, AMARE: redroot pigweed (Amaranthus retroflexus), read-out: Visual Growth Reduction (%) 14 Days After Application AMARE
[5] = Brassica napus, BRSSS: oilseed rape, canola (Brassica napus), read-out: Visual Growth Reduction (%) 14 Days After Application BRSSS
[6] = Chenopodium album, CHEAL: lambsquarters (Chenopodium album), read-out: Visual Growth Reduction (%) 14 Days After Application CHEAL
[7] = Euphorbia heterophylla, EPHHL: wild poinsettia (Euphorbia heterophylla), read-out: Visual Growth Reduction (%) 14 Days After Application EPHHL
[8] = Helianthus annuus, HELAN: sunflower (Helianthus annuus), read-out: Visual Growth Reduction (%) 14 Days After Application HELAN
[9] = Viola tricolor, VIOTR: wild pansy (Viola tricolor), read-out: Visual Growth Reduction (%) 14 Days After Application VIOTR
[10] = CYPSS, read-out: Visual Growth Reduction (%) 14 Days After Application CYPSS
[11] = DIGSA: crabgrass (Digitaria sanguinalis), read-out: Visual Growth Reduction (%) 14 Days After Application DIGSA
[12] = ECHSS, read-out: Visual Growth Reduction (%) 14 Days After Application ECHSS
[13] = ORYSS (crop), read-out: Visual Growth Reduction (%) 14 Days After Application ORYSS
[14] = SETFA: giant foxtail (Setaria faberi), read-out: Visual Growth Reduction (%) 14 Days After Application SETFA
[15] = SORVU: grain sorghum (Sorghum vulgare), read-out: Visual Growth Reduction (%) 14 Days After Application SORVU
[16] = TRZSS (crop), read-out: Visual Growth Reduction (%) 14 Days After Application TRZSS
[17] = ZEAMX: maize, corn (Zea mays), read-out: Visual Growth Reduction (%) 14 Days After Application ZEAMX

| melting point | Structure (SMILES) | pest or weed control at 70 g/ha [1, 3] [%] | pest or weed control at 140 g/ha [1, 3] [%] | pest or weed control at 70 g/ha [1, 4] [%] | pest or weed control at 140 g/ha [1, 4] [%] | pest or weed control at 70 g/ha [1, 5] [%] | pest or weed control at 140 g/ha [1, 5] [%] | pest or weed control at 70 g/ha [1, 6] [%] | pest or weed control at 140 g/ha [1, 6] [%] | pest or weed control at 70 g/ha [1, 7] [%] | pest or weed control at 140 g/ha [1, 7] [%] | pest or weed control at 70 g/ha [1, 8] [%] | pest or weed control at 140 g/ha [1, 8] [%] | pest or weed control at 70 g/ha [1, 9] [%] | pest or weed control at 140 g/ha [1, 9] [%] | pest or weed control at 70 g/ha [2, 10] [%] | pest or weed control at 140 g/ha [2, 10] [%] | pest or weed control at 70 g/ha [2, 11] [%] | pest or weed control at 140 g/ha [2, 11] [%] | pest or weed control at 70 g/ha [2, 12] [%] | further results |
| --- | --- | --- | --- | --- | --- | --- | --- | --- | --- | --- | --- | --- | --- | --- | --- | --- | --- | --- | --- | --- | --- |
| 145 °C | COC(=O)c1nc(-c2ccc(C(F)(F)F)nc2)c(C)c(N)c1Cl [Compound 32] | 45 to 59 | 85 to 94 | 0 to 29 | 0 to 29 | 60 to 74 | 75 to 84 | 85 to 94 | 85 to 94 | 0 to 29 | 0 to 29 | 95 to 100 | 95 to 100 | 45 to 59 | 75 to 84 | 95 to 100 | 95 to 100 | 75 to 84 | 75 to 84 | 85 to 94 | pest or weed control at 140 g/ha [2, 12]: 85 to 94%; pest or weed control at 70 g/ha [2, 13]: 0 to 29%; pest or weed control at 140 g/ha [2, 13]: 0 to 29%; pest or weed control at 70 g/ha [2, 14]: 85 to 94%; pest or weed control at 140 g/ha [2, 14]: 85 to 94%; pest or weed control at 70 g/ha [2, 15]: 60 to 74%; pest or weed control at 140 g/ha [2, 15]: 75 to 84%; pest or weed control at 70 g/ha [2, 16]: 60 to 74%; pest or weed control at 140 g/ha [2, 16]: 60 to 74%; pest or weed control at 70 g/ha [2, 17]: 60 to 74%; pest or weed control at 140 g/ha [2, 17]: 60 to 74% |
| 155 to 158 °C | Nc1c(Cl)c(C(=O)O)nc(-c2ccc(C(F)(F)F)nc2)c1Cl [Compound 33] | 0 to 29 | 0 to 29 | 60 to 74 | 95 to 100 | 0 to 29 | 30 to 44 | 85 to 94 | 85 to 94 | 75 to 84 | 75 to 84 | 85 to 94 | 95 to 100 | 0 to 29 | 0 to 29 | 95 to 100 | 95 to 100 | 45 to 59 | 60 to 74 | 60 to 74 | pest or weed control at 140 g/ha [2, 12]: 60 to 74%; pest or weed control at 70 g/ha [2, 13]: 0 to 29%; pest or weed control at 140 g/ha [2, 13]: 0 to 29%; pest or weed control at 70 g/ha [2, 14]: 75 to 84%; pest or weed control at 140 g/ha [2, 14]: 75 to 84%; pest or weed control at 70 g/ha [2, 15]: 75 to 84%; pest or weed control at 140 g/ha [2, 15]: 75 to 84%; pest or weed control at 70 g/ha [2, 16]: 30 to 44%; pest or weed control at 140 g/ha [2, 16]: 45 to 59%; pest or weed control at 70 g/ha [2, 17]: 60 to 74%; pest or weed control at 140 g/ha [2, 17]: 60 to 74% |
| 160 °C | COC(=O)c1nc(-c2ccc(C(F)(F)F)nc2C)c(F)c(N)c1Cl [Compound 35] | 0 to 29 | 0 to 29 | 0 to 29 | 0 to 29 | 0 to 29 | 0 to 29 | 0 to 29 | 0 to 29 | 0 to 29 | 0 to 29 | 0 to 29 | 0 to 29 | 0 to 29 | 0 to 29 | 0 to 29 | 0 to 29 | 0 to 29 | 0 to 29 | 0 to 29 | pest or weed control at 140 g/ha [2, 12]: 0 to 29%; pest or weed control at 70 g/ha [2, 13]: 0 to 29%; pest or weed control at 140 g/ha [2, 13]: 0 to 29%; pest or weed control at 70 g/ha [2, 14]: 0 to 29%; pest or weed control at 140 g/ha [2, 14]: 0 to 29%; pest or weed control at 70 g/ha [2, 15]: 0 to 29%; pest or weed control at 140 g/ha [2, 15]: 0 to 29%; pest or weed control at 70 g/ha [2, 16]: 0 to 29%; pest or weed control at 140 g/ha [2, 16]: 0 to 29%; pest or weed control at 70 g/ha [2, 17]: 0 to 29%; pest or weed control at 140 g/ha [2, 17]: 0 to 29% |
| 260 to 265 °C (dec.) | Nc1c(F)c(-c2ccc(C3CC3)nc2)nc(C(=O)O)c1Cl [Compound 36, 4-amino-5-chloro-6′-cyclopropyl-3-fluoro-[2,3′-bipyridine]-6-carboxylic acid] | 85 to 94 | 95 to 100 | 95 to 100 | 95 to 100 | 85 to 94 | 95 to 100 | 95 to 100 | 95 to 100 | 95 to 100 | 95 to 100 | 95 to 100 | 95 to 100 | 0 to 29 | 0 to 29 | 95 to 100 | 95 to 100 | 60 to 74 | 75 to 84 | 85 to 94 | pest or weed control at 140 g/ha [2, 12]: 85 to 94%; pest or weed control at 70 g/ha [2, 13]: 0 to 29%; pest or weed control at 140 g/ha [2, 13]: 0 to 29%; pest or weed control at 70 g/ha [2, 14]: 95 to 100%; pest or weed control at 140 g/ha [2, 14]: 95 to 100%; pest or weed control at 70 g/ha [2, 15]: 60 to 74%; pest or weed control at 140 g/ha [2, 15]: 60 to 74%; pest or weed control at 70 g/ha [2, 16]: 30 to 44%; pest or weed control at 140 g/ha [2, 16]: 45 to 59%; pest or weed control at 70 g/ha [2, 17]: 95 to 100%; pest or weed control at 140 g/ha [2, 17]: 95 to 100% |
